# Assay results reported in US6906098B2, “Mixed steroidal 1,2,4,5-tetraoxane compounds and methods of making and using thereof” (priority 2002, dated 2005).
# Read-outs that look alike come from different tables or passages of the source.
# Columns and labels:
# VERO cells = details: for IC50: Table 5, VERO cells; for SI (selectivity index): ratio of IC50 in VERO cells to MIC (M. tuberculosis H37Rv)
# [1] = tested on: Plasmodium falciparum chloroquine-susceptible strain D6; experiment: In vitro antimalarial drug susceptibility assay (radiolabeled hypoxanthine incorporation), strain D6; type: cell-based; details: for Strain D6 IC50: growth inhibition, chloroquine-susceptible strain D6, 66 h incubation; for IC50: Plasmodium falciparum, D6, 66 h, read-out: Strain D6 IC50, growth inhibition, chloroquine-susceptible strain D6, 66 h incubation
# [2] = tested on: D6 and W2 P. falciparum clones; type: cell-based, Plasmodium falciparum; details: for Resistance Index: IC50 (W2)/IC50 (D6) ratio
# [3] = tested on: Plasmodium falciparum chloroquine-resistant strain W2; experiment: microbe, parasite or virus in culture; type: cell-based; details: for Strain W2 IC50: growth inhibition, chloroquine-resistant strain W2, 66 h incubation; for IC50: Plasmodium falciparum, W2, 66 h, read-out: Strain W2 IC50, growth inhibition, chloroquine-resistant strain W2, 66 h incubation
# M. tuberculosis H37Rv = experiment: Minimum inhibitory concentration (MIC) in the MABA; type: cell-based, Mycobacterium tuberculosis
# Experimental: (§1) The activity of the compounds of the present invention against Mycobacterium tuberculosis was determined using the following assays conducted by the National Institute of Allergy and Infectious Diseases (NIAID) supports a TB drug acquisition and screening program, the TAACF.
# 2. Minimum Inhibitory Concentration (MIC)
# The MIC is defined as the lowest concentration effecting a reduction in fluorescence of 90% relative to controls. Minimum compound requirements: 1.0 mg.
# [4] = tested on: Mycobacterium tuberculosis H37Rv (ATCC 27294); experiment: Primary screen, Microplate Alamar Blue Assay (MABA), percent inhibition; type: cell-based; details: primary screening at 6.25 μg/ml; for inhibition at 6.25 µg/mL: Mycobacterium tuberculosis
# Experimental: as §1
# To determine the percent inhibition the following assay was conducted. Primary screening was conducted at 6.25 μg/ml (or the molar equivalent of highest molecular weight compound in a given series of congeners) against Mycobacterium tuberculosis H37Rv (ATCC 27294) in BACTEC 12B medium using the Microplate Alamar Blue Assay (MABA). See Collins, L. and S. G. Franzblau. 1997. Microplate alamar blue assay versus BACTEC 460 system for high-throughput screening of compounds against Mycobacterium tuberculosis and Mycobacterium avium. Antimicrob Agents Chemother 41:1004-9, which is herein incorporated by reference.
# Minimum compound requirements: 1.0 mg.
# [5] = Table 5, Alamar assay, M. tuberculosis H37Rv
# [6] = Mycobacterium tuberculosis, H37RV, Table 5, Alamar assay, M. tuberculosis H37Rv, read-out: MIC
# [7] = Table 5, Alamar assay, read-out: % Inhib
compound,measurement,setting,value
"CCC1CCC2(CC1)OOC1(CC[C@]3(C)C4C[C@H](OC(C)=O)[C@@]5(C)C(CC[C@@H]5C(C)CCC(=O)NC)C4[C@H](OC(C)=O)C[C@@H]3C1)OO2 (single isomer, unassigned) [30/1C41, N-Methyl-7α,12α-Diacetoxy-5β-cholan-24-amide-3-spiro-6′-(1′,2′,4′,5′-tetraoxacyclohexane)-3′-spiro-1″-((4″S or R)-ethyl)cyclohexane]",IC50,VERO cells,1.59 µg/mL
same,SI (selectivity index),VERO cells,0.50
same,Strain D6 IC50,[1],18.50 ng/mL
same,Resistance Index,[2],0.22
same,Strain W2 IC50,[3],4.07 ng/mL
same,MIC,M. tuberculosis H37Rv; [5],3.13 µg/mL
same,% Inhib,"[4]; Table 5, Alamar assay",99%
"CCCNC(=O)CCC(C)[C@H]1CCC2C3C(C[C@H](OC(C)=O)[C@@]21C)[C@@]1(C)CCC2(C[C@H]1C[C@H]3OC(C)=O)OOC1(CCC(c3ccccc3)CC1)OO2 (single isomer, unassigned) [Compound 1C53, N-(n-Propyl)-7α,12α-Diacetoxy-5β-cholan-24-amide-3-spiro-6′-(1′,2′,4′,5′-tetraoxacyclohexane)-3′-spiro-1″-((4″S or R)-phenyl)cyclohexane]",Strain D6 IC50,[1],24.28 ng/mL
same,Resistance Index,[2],1.01
same,Strain W2 IC50,[3],24.54 ng/mL
same,MIC,"M. tuberculosis H37Rv; Table 3, H37Rv",>6.25 µg/mL
same,MIC,M. tuberculosis H37Rv; [5],>6.25 µg/mL
same,Inhibition (%),"[4]; Table 3, H37Rv",59%
same,% Inhib,"[4]; Table 5, Alamar assay",59%
"CC(=O)O[C@H]1CC2C(C3CC[C@H](C(C)CCC(=O)O)[C@]31C)[C@H](OC(C)=O)C[C@@H]1CC3(CC[C@]21C)OOC1(CCCCC1C)OO3 (stereo partly drawn) [9d/1C16, 7α,12α-Diacetoxy-5β-cholan-24-oic acid-3-spiro-6′-(1′,2′,4′,5′-tetraoxacyclohexane)-3′-spiro-1″-(2″-methyl)cyclohexane]",IC50,[1],0.0429 µg/mL
same,Resistance Index,[2],0.56
same,IC50,[3],0.0238 µg/mL
same,MIC,M. tuberculosis H37Rv; [6],> 6.25 µg/mL
same,inhibition at 6.25 µg/mL,[4]; [7],0%
"CCCNC(=O)CCC(C)[C@H]1CCC2C3C(C[C@H](OC(C)=O)[C@@]21C)[C@@]1(C)CCC2(C[C@H]1C[C@H]3OC(C)=O)OOC1(CCC(C)CC1)OO2 (stereo partly drawn) [24/1C33, N-(n-Propyl)-7α,12α-diacetoxy-5β-cholan-24-amide-3-spiro-6′-(1′,2′,4′,5′-tetraoxacyclohexane)-3′-spiro-1″-((4″S)-methyl)cyclohexane]",Strain D6 IC50,[1],57.41 ng/mL
same,antimalarial activity in words,"[2]; D6 and W2 clones, Table 2",inactive
same,Resistance Index,[2],0.98
same,Strain W2 IC50,[3],56.11 ng/mL
same,MIC,M. tuberculosis H37Rv; [5],>6.25 µg/mL
same,% Inhib,"[4]; Table 5, Alamar assay",0%
"CCC1CCC2(CC1)OOC1(CC[C@]3(C)C4C[C@H](OC(C)=O)[C@@]5(C)C(CC[C@@H]5C(C)CCC(=O)OC)C4[C@H](OC(C)=O)C[C@@H]3C1)OO2 (single isomer, unassigned) [8i/1B13a, Methyl 7α,12α-diacetoxy-5β-cholan-24-oate-3-spiro-6′-(1′,2′,4′,5′-tetraoxacyclohexane)-3′-spiro-1″-((4″R or S)- and (4″S or R)-ethyl)cyclohexane]",Strain D6 IC50,[1],4.46 ng/mL
same,Resistance Index,[2],2.10
same,IC50,[3],0.00939 µg/mL
same,MIC,M. tuberculosis H37Rv; [6],> 6.25 µg/mL
same,inhibition at 6.25 µg/mL,[4]; [7],62%
"CC(=O)O[C@H]1CC2C(C3CC[C@H](C(C)CCC(N)=O)[C@]31C)[C@H](OC(C)=O)C[C@@H]1CC3(CC[C@]21C)OOC1(CCC(C)CC1)OO3 (stereo partly drawn) [21/1C30, 7α,12α-Diacetoxy-5β-cholan-24-amide-3-spiro-6′-(1′,2′,4′,5′-tetraoxacyclohexane)-3′-spiro-1″-((4″S)-methyl)cyclohexane]",IC50,VERO cells,2.43 µg/mL
same,SI (selectivity index),VERO cells,0.39
same,Strain D6 IC50,[1],12.70 ng/mL
same,Resistance Index,[2],0.70
same,Strain W2 IC50,[3],8.94 ng/mL
same,MIC,M. tuberculosis H37Rv; [5],6.25 µg/mL
same,% Inhib,"[4]; Table 5, Alamar assay",99%
"CCNC(=O)CCC(C)[C@H]1CCC2C3C(C[C@H](OC(C)=O)[C@@]21C)[C@@]1(C)CCC2(C[C@H]1C[C@H]3OC(C)=O)OOC1(CCC(c3ccccc3)CC1)OO2 (single isomer, unassigned) [Compound 1C47, N-Ethyl-7α,12α-Diacetoxy-5β-cholan-24-amide-3-spiro-6′-(1′,2′,4′, 5′-tetraoxacyclohexane)-3′-spiro-1″-((4″R or S)-phenyl)cyclohexane]",Strain D6 IC50,[1],5.41 ng/mL
same,Resistance Index,[2],1.08
same,Strain W2 IC50,[3],5.87 ng/mL
same,MIC,"M. tuberculosis H37Rv; Mycobacterium tuberculosis, H37RV, Table 3, H37Rv, read-out: MIC",> 6.25 µg/mL
same,MIC,M. tuberculosis H37Rv; [6],> 6.25 µg/mL
same,inhibition at 6.25 µg/mL,"[4]; Table 3, H37Rv, read-out: Inhibition (%)",50%
same,inhibition at 6.25 µg/mL,[4]; [7],50%
"CCC1CCC2(CC1)OOC1(CC[C@]3(C)C4C[C@H](OC(C)=O)[C@@]5(C)C(CC[C@@H]5C(C)CCC(=O)O)C4[C@H](OC(C)=O)C[C@@H]3C1)OO2 (single isomer, unassigned) [9i/1C34, 7α,12α-Diacetoxy-5β-cholan-24-oic acid-3-spiro-6′-(1′,2′,4′,5′-tetraoxacyclohexane)-3′-spiro-1″-((4″R or S)-ethyl)cyclohexane]",IC50,[1],0.00374 µg/mL
same,Resistance Index,[2],1.26
same,IC50,[3],0.00471 µg/mL
same,MIC,M. tuberculosis H37Rv; [6],> 6.25 µg/mL
same,inhibition at 6.25 µg/mL,[4]; [7],80%
"COC(=O)CCC(C)[C@H]1CCC2C3C(C[C@H](OC(C)=O)[C@@]21C)[C@@]1(C)CCC2(C[C@H]1C[C@H]3OC(C)=O)OOC1(CCC(C(C)(C)C)CC1)OO2 (single isomer, unassigned) [8k/1B09a, Methyl 7α,12α-diacetoxy-5β-cholan-24-oate-3-spiro-6′-(1′,2′,4′,5′-tetraoxacyclohexane)-3′-spiro-1″-(4″R or S)- and (4″S or R)-t-butyl)cyclohexane]",Strain D6 IC50,[1],74.26 ng/mL
same,Resistance Index,[2],0.49
same,IC50,[3],0.0364 µg/mL
same,MIC,"M. tuberculosis H37Rv; Mycobacterium tuberculosis, H37RV, Table 5, Alamar assay, M. tuberculosis H37Rv",> 6.25 µg/mL
same,% Inhib,"[4]; Table 5, Alamar assay, listed as 8g 1B09a",32%
"CCC1CCC2(CC1)OOC1(CC[C@]3(C)C4C[C@H](OC(C)=O)[C@@]5(C)C(CC[C@@H]5C(C)CCC(=O)OC)C4[C@H](OC(C)=O)C[C@@H]3C1)OO2 (single isomer, unassigned) [8j/1B13b, Methyl 7α,12α-diacetoxy-5β-cholan-24-oate-3-spiro-6′-(1′,2′,4′,5′-tetraoxacyclohexane)-3′-spiro-1″-((4″R or S)- and (4″S or R)-ethyl)cyclohexane]",Strain D6 IC50,[1],11.73 ng/mL
same,Resistance Index,[2],1.60
same,Strain W2 IC50,[3],18.76 ng/mL
same,MIC,M. tuberculosis H37Rv; [5],>6.25 µg/mL
same,% Inhib,"[4]; Table 5, Alamar assay",65%
"CC(=O)O[C@H]1CC2C(C3CC[C@H](C(C)CCC(=O)O)[C@]31C)[C@H](OC(C)=O)C[C@@H]1CC3(CC[C@]21C)OOC1(CCCCC1)OO3 (stereo partly drawn) [9b/1C15, 70α,12α-Diacetoxy-5β-cholan-24-oic acid-3-spiro-6′-(1′,2′,4′,5′-tetraoxacyclohexane)-3′-spirocyclohexane]",IC50,[1],0.019 µg/mL
same,Resistance Index,[2],0.63
same,IC50,[3],0.0119 µg/mL
same,MIC,M. tuberculosis H37Rv; [6],> 6.25 µg/mL
same,inhibition at 6.25 µg/mL,[4]; [7],33%
"COC(=O)CCC(C)[C@H]1CCC2C3C(C[C@H](OC(C)=O)[C@@]21C)[C@@]1(C)CCC2(C[C@H]1C[C@H]3OC(C)=O)OOC1(CCC(C)CC1)OO2 (mixture of isomers) [8h/1B08b, Methyl 7α,12α-diacetoxy-5β-cholan-24-oate-3-spiro-6′-(1′,2′,4′,5′-tetraoxacyclohexane)-3′-spiro-1″-((4″R)- and (4″S)-methyl)cyclohexane]",Strain D6 IC50,[1],15.99 ng/mL
same,Resistance Index,[2],0.53
same,Strain W2 IC50,[3],8.54 ng/mL
same,MIC,M. tuberculosis H37Rv; [5],>6.25 µg/mL
same,% Inhib,"[4]; Table 5, Alamar assay",38%
"CC(=O)O[C@H]1CC2C(C3CC[C@H](C(C)CCC(N)=O)[C@]31C)[C@H](OC(C)=O)C[C@@H]1CC3(CC[C@]21C)OOC1(CCC(c2ccccc2)CC1)OO3 (single isomer, unassigned) [Compound 1C50, 7α,12α-Diacetoxy-5β-cholan-24-amide-3-spiro-6′-(1′,2′,4′,5′-tetraoxacyclohexane)-3′-spiro-1″-((4″S or R)-phenyl)cyclohexane]",Strain D6 IC50,[1],40.49 ng/mL
same,Resistance Index,[2],0.92
same,Strain W2 IC50,[3],37.46 ng/mL
same,MIC,"M. tuberculosis H37Rv; Table 3, H37Rv",6.25 µg/mL
same,MIC,M. tuberculosis H37Rv; [5],>6.25 µg/mL
same,Inhibition (%),"[4]; Table 3, H37Rv",87%
same,% Inhib,"[4]; Table 5, Alamar assay",87%
